Each structure is given as a SMILES string.

The target in assay [1] is T1, 5-LO (Rattus norvegicus, UniProt P12527).
T1 construct: blood collection, heparinisation, challenge with A23187 and radioimmunoassay of LTB4 and TxB2; endogenous in cells
T1 sequence (P12527 1-673): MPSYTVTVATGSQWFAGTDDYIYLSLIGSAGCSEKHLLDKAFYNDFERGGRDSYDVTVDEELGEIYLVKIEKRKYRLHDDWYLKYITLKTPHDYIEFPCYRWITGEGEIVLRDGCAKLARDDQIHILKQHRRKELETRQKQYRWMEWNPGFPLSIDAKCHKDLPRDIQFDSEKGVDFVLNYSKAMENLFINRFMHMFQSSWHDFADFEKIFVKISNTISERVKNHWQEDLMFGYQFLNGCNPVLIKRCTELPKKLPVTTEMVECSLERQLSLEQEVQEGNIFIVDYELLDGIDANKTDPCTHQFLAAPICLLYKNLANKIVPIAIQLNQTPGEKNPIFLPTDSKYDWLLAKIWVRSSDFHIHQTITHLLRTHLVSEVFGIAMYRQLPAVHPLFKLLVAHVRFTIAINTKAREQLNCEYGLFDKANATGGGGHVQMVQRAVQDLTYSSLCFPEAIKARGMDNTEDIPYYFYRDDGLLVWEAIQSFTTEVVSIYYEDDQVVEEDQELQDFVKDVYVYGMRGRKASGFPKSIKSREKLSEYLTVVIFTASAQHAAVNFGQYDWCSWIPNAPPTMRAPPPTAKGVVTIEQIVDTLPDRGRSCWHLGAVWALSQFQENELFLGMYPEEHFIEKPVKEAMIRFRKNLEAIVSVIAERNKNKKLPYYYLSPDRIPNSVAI
The assay can be described thus: test c) ex vivo assay, oral administration, blood collection, A23187 challenge, radioimmunoassay of LTB4. The format is in vivo. As for the experimental part:
c) An ex vivo assay system, which is a variation of test b) above, involving administration of a test compound (usually orally as the suspension produced when a solution of the test compound in dimethylsulphoxide is added to carboxymethylcellulose), blood collection, heparinisation, challenge with A23187 and radioimmunoassay of LTB4 and TxB2. This test provides an indication of the bioavailability of a test compound as an inhibitor of 5-LO or cyclooxygenase.

Assay [2] concerns the target T2, 5-LO (Homo sapiens, UniProt P09917).
T2 construct: incubating a test compound with heparinised human blood; endogenous in cells; host or cells: blood cells in heparinised human blood
T2 sequence (P09917 1-674): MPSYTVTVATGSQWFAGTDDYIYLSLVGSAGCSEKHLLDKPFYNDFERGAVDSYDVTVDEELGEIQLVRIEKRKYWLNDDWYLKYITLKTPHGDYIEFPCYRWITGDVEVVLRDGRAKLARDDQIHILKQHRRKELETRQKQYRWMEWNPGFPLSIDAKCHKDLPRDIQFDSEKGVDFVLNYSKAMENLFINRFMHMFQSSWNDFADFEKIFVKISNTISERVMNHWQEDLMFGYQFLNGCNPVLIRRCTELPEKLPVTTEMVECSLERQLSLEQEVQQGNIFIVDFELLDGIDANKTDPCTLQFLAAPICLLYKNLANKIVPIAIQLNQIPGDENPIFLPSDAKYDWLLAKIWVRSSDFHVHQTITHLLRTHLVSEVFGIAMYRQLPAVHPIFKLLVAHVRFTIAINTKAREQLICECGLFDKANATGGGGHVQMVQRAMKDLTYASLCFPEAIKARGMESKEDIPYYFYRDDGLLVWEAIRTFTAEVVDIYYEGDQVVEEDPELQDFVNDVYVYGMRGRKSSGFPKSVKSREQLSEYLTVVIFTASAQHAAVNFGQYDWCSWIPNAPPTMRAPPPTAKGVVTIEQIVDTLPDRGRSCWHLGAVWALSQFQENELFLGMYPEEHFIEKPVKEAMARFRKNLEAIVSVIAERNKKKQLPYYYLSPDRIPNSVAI
The assay can be described thus: test b) in vitro heparinised human blood, A23187 challenge, LTB4 radioimmunoassay. The format is cell-based.
Method: b) An in vitro assay system involving incubating a test compound with heparinised human blood, prior to challenge with the calcium ionophore A23187 and then indirectly measuring the inhibitory effects on 5-LO by assaying the amount of LTB4 using the specific radioimmunoassay described by Carey and Forder (F. Carey and R. A. Forder, Brit. […] This test provides an indication of the effects of a test compound against 5-LO and also cyclooxygenase in the presence of blood cells and proteins. It permits the selectivity of the inhibitory effect on 5-LO or cyclooxygenase to be assessed.

Assay [3] has as its target T3, cyclooxygenase (Homo sapiens, UniProt P23219).
T3 construct: incubating a test compound with heparinised human blood; endogenous in cells; host or cells: blood cells (platelets by own knowledge) in heparinised human blood
The assay can be described thus: test b) in vitro heparinised human blood, A23187 challenge, TxB2 radioimmunoassay. The format is cell-based. As for the experimental part:
As stated previously, the heterocyclic derivatives of the formula I are inhibitors of the enzyme 5-LO.
b) An in vitro assay system involving incubating a test compound with heparinised human blood, prior to challenge with the calcium ionophore A23187 and then indirectly measuring the inhibitory effects on 5-LO by assaying the amount of LTB4 using the specific radioimmunoassay described by Carey and Forder (F. Carey and R. A. Forder, Brit. J. Pharmacol. 1985, 84, 34P) which involves the use of a protein-LTB4 conjugate produced using the procedure of Young et alia (Prostaglandins, 1983, 26(4), 605-613). The effects of a test compound on the enzyme cyclooxygenase (which is involved in the alternative metabolic pathway for arachidonic acid and gives rise to prostaglandins, thromboxanes and related metabolites) may be measured at the same time using the specific radioimmunoassay for thromboxane B2 (TxB2) described by Carey and Forder (see above). This test provides an indication of the effects of a test compound against 5-LO and also cyclooxygenase in the presence of blood cells and proteins. It permits the selectivity of the inhibitory effect on 5-LO or cyclooxygenase to be assessed.

T3 sequence (P23219 24-599): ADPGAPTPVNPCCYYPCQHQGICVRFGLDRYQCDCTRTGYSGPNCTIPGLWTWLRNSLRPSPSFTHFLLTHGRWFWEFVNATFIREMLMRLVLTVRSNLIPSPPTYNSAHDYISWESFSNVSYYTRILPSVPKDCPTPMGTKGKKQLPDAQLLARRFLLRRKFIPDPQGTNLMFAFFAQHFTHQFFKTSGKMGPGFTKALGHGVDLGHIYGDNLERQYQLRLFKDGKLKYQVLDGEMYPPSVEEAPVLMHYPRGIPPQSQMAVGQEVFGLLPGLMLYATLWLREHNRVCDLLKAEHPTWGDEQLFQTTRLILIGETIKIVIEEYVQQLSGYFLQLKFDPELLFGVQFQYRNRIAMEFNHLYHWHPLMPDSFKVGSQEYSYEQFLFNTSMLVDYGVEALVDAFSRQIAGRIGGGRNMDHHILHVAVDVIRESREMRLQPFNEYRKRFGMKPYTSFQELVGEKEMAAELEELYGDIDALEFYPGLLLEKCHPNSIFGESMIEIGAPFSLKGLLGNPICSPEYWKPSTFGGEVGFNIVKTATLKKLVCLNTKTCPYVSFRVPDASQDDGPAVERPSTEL

As for `COC1(c2cccc(OCc3ccc4ccccc4c3)c2)CCOCC1` [4-methoxy-4-[3-(naphth-2-ylmethoxy)phenyl]tetrahydropyran], in assay [1], the median effective dose (ED50) was found to be 5 mg/kg. In addition, the results for the IC50 in assay [2] and in assay [3] were 100 nM and more than 40000 nM, respectively.

What is called ED50 is the dose that gives a 50% effect, or the effect in half of the subjects. Higher therefore signals a need for a large dose. By IC50 is commonly meant the point on the concentration scale where inhibition reaches its midpoint.

The record behind these values is patent US5098930A, “Heterocyclic derivatives” (Imperial Chemical Industries PLC, priority 1988, dated 1992).
